Test results: US7109173B1, “Transport of nucleotides, oligonucleotides and polynucleotides into the cytoplasm and nucleus of cells by peptides” (priority 2004, dated 2006)

Key:
Format in all cases: cell-based
Fibroblasts = experiment: Uptake of homopolymers by fibroblasts, single cell fluorescence analysis with syto-13; details: fibroblasts stained with syto-13, relative intensity ± standard deviation, n = number of cells
Experimental: (§1) Fibroblasts cells were incubated for 24 hrs with and without fetal calf serum. Cells harvested at zero time served as controls. They were subjected to all of the analyses performed on experimental cells. Cells were harvested as described in ‘section V. Methods and Materials’. Macrophages were treated the same as previously described for fibroblasts except human serum was used in place of fetal calf serum and they were not cultured without serum. Cells were incubated with predetermined amounts of nucleotides with and without peptide Incubations were stopped at zero time and 24 hrs. The media harvested at zero and 24 hrs was saved for analysis for peptides and nucleotides. Cells were washed and harvested as described previously. The wash was saved for analysis of peptides and nucleotides. Some cells were sonicated and aliquots analyzed for radioactivity by a liquid scintillation spectrometer (counter). […] Spectrophotometric analysis quantifies the amount of nucleotide retained. VI: Extraction of lipids—The non-saponifiable lipids and free fatty acids were extracted using petroleum ether (30–60° C.). Neutral lipids were extracted with petroleum ether without prior saponification. […] The latter two methods, when used, necessitate extensive chromatographic separation of mevalonate from the phospholipids and neutral lipids. […] Control experiments in which the reaction was stopped at zero time and in which the enzyme preparation is omitted show no radioactivity is extracted when the usual incubation, saponification, and isolation procedures were performed.
(§2) a) Isolating the peptides then b) incubating the peptide sample with predetermined amounts of nucleotides with and without peptides. After this, the nucleotides are transferred into the cells. Cells were treated with homopolymers in the presence and absence of the peptides. Uptake was determined as described under Methods and Materials, above. The polynucleotides were quantified spectrophotometrically and by single cell fluorescence analysis using syto-13 (Molecular Probes).
Fibroblasts were cultured as described under V.Methods and Materials. Cells were stained with syto-13 (Molecular Probes). Single cell fluorescence analysis was performed using a Zeiss microsope photometer. Values are relative intensity ±standard deviation. N=number of cells.

cells = experiment: Determination of cellular loci of administered polynucleotides by differential centrifugation; design: Absorbance, Nuclear Fraction / Absorbance, Microsomal Fraction: dose or concentration left out as unconfirmed; details: for μ grams, Microsomal Fraction / μ grams, Nuclear Fraction: calculated after subtracting zero time control values from experimental values; for Absorbance, Microsomal Fraction / Absorbance, Nuclear Fraction: observed values, absorbance at 260 nm
Experimental: as §1
Cells were cultured and treated as described under Methods, above. Cells were subjected to differential centrifugation. μ grams calculated after correction of values by subtracting zero time control values from experimental values. No significant absorbances of nucleotides were detected in the experimental samples in the mitochondrial-lysosomal fraction when zero time control values were subtracted from the experimental values. Absorbance was measured spectrophotometrically at […]. […] In a preferred embodiment of this invention, the target cells are smooth muscle cells and macrophages which are found in atheromatous plaques. The plaques are a focal thickening of the intima caused by proliferation of smooth muscle cells.

human fibroblasts = experiment: Uptake of polynucleotides in the presence and absence of peptides by human fibroblasts, spectrophotometric; design: Absorbance, Peptides / Absorbance, Without Peptides: dose or concentration left out as unconfirmed; details: 24 hrs minus zero time values; for μ grams, Peptides / Absorbance, Peptides: with peptides; for Absorbance, Peptides / Absorbance, Without Peptides: absorbance at 260 nm, ± standard deviation
Experimental: 1. Analysis of control cells stopped at zero time gives the original content of nucleotides of interest.
2. Analysis of control cells stopped after 24 hour incubation gives the change in nucleotide content during the 24 hr period. That is, 24 hr content of control cells minus zero time control cells nucleotide content equals net change.
3. Analysis of nucleotide treated cells at zero time incubation gives the initial content and/or bound nucleotides.
4. Analysis of nucleotide treated cells at 24 hour time gives the amount present after 24 hours.
5. 24 hour content minus zero time content gives the net change in nucleotide content.
6. The net content of the 24 hr nucleotide treated cells minus the zero time content of nucleotides gives the amount transported by the peptides.
7. The net values are previously corrected for the amount in the original media and wash for the treated cells.
as §1, §2
The cells were cultured as described under Methods, above. The experiments were stopped at zero time and 24 hours. Values are obtained by subtracting initial zero time values from those of 24 hrs. Values are ±standard deviation. Absorbance measured spectrophotometrically at […].

μ grams, Microsomal Fraction (cells) [μ grams]	Absorbance, Microsomal Fraction (cells)	Substance	Fluorescence Relative Intensity, Control (Fibroblasts)	Fluorescence Relative Intensity, Experimental (Fibroblasts)	μ grams, Nuclear Fraction (cells) [μ grams]	Absorbance, Nuclear Fraction (cells)	μ grams, Peptides (human fibroblasts) [μ grams]	Absorbance, Peptides (human fibroblasts)	μ grams, Without Peptides (human fibroblasts) [μ grams]	Absorbance, Without Peptides (human fibroblasts)
155	0.242 ± 0.038	Polyadenylic acid	11.7 ± 3.8 (n = 22)	27.4 ± 7.5 (n = 23)	59.1	0.265 ± 0.061	252	0.200 ± 0.101	59	0.047 ± 0.025
153	0.236 ± 0.025	Polycytidylic acid	3.3 ± 0.6 (n = 14)	14.9 ± 1.6 (n = 14)	107.4	0.254 ± 0.026	380	0.209 ± 0.028	94	0.052 ± 0.031
		Polyguanylic acid	13.1 ± 3.1 (n = 24)	39.2 ± 9.5 (n = 17)	747.7	0.354 ± 0.030	1160	0.444 ± 0.058	580	0.223 ± 0.084
186	0.313 ± 0.030	Polyuridylic acid	4.4 ± 1.3 (n = 22)	16.8 ± 4.6 (n = 23)	246.1	0.326 ± 0.050	436	0.370 ± 0.07	82	0.071 ± 0.013
